Laboratory results as given in paper PMC3348135, “Identification of New Agonists and Antagonists of the Insect Odorant Receptor Co-Receptor Subunit” (PLoS ONE, 2012).

Experiments:
Onub\Orco + Onub\Or1 = test: Agonist activation of Onub\Orco + Onub\Or1 in Xenopus oocytes, two-electrode voltage clamp; format: cell-based, Ostrinia nubilalis; conditions: 100 µM compound; mean ± SEM, n=3-8
[1] = Solubility in recording solution (observation); format: physicochemical; conditions: aqueous recording solution, higher concentrations (OLC2: above 100 µM)
Description: Odorant and Orco ligand induced currents were recorded under two-electrode voltage clamp in Xenopus laevis oocytes expressing ORs, using an automated parallel electrophysiology system (OpusExpress 6000A; Molecular Devices). Oocytes were perfused with ND96 (in mM: 96 NaCl, 2 KCl, 1 CaCl2, 1 MgCl2, 5 HEPES, pH 7.5). Odorant stock solutions (0.5 or 1 M) and Orco ligand stock solutions (100 mM) were prepared in DMSO and diluted in ND96. Unless otherwise noted, applications were for 60 sec at a flow rate of 1.0 ml/min, with extensive washing in ND96 (9 or 20 min at 4.6 ml/min) between applications. Micropipettes were filled with 3 M KCl and had resistances of 0.2−2.0 MΩ. The holding potential was −70 mV. Current responses, filtered (4-pole, Bessel, low pass) at 20 Hz (−3 db) and sampled at 100 Hz, were captured and stored using OpusXpress 1.1 software (Molecular Devices).

CCc1ccc(NC(=O)CSc2nnc(-c3ccccn3)n2CC)cc1 [OLC2]
Response amplitude as percentage of response to 100 µM OLC3, Onub\Orco + Onub\Or1 (Onub\Orco + Onub\Or1): 9 ± 2%
Solubility [1]: poor solubility
